Test results reported in patent US20030036049A1, “Optical method for testing sensitivity of cells” (MEDIS EL LTD., priority 2001, published 2003).

Key:
[1] = system: T47D human breast cancer cells; assay: Viable cell count on hemocytometer with trypan blue exclusion; assay type: cell-based; details: low and high doses, 24, 48, 72 hours, FIG. 2 panel 181
Description: (§1) Cell culture: T80 and T47D human breast cancer cells were routinely cultured in DMEM supplemented with 10% fetal calf serum (FCS) (Biological Industries, Beit Haemek, Israel), 4 mM glutamine (Biological Ind.), 100 u/ml penicillin, 0.1 milligram/milliliter streptomycin, 12.5 units/milliliter nystatin (Biological Ind.) and 0.2 units/milliliter insulin (Lilly, Fegersheim, France).
(§2) About 2×10^5 cells were plated on 6 well-plates and left overnight to adhere. Two different concentrations of different drugs were added for a period of 24, 48 and 72 hours and then cells were harvested with trypsin, centrifuged, and resuspended in culture medium until staining.
(§3) Navelbine and 5-Fluorouracil (5FU) where added at low and high doses to T80 and T47D cells respectively for 24, 48, and 72 hours. The cells were counted on a hemocytometer, using trypan blue for exclusion of dead cells, for the purpose of Electro-optical scanner -independent estimation of drug efficacy.

[2] = system: T47D human breast cancer cells; assay: Rh123 fluorescence intensity, Electro-optical scanner (CellScan); assay type: cell-based
Description: as §2
(§4) Cell staining and loading: Three samples were prepared for each treatment at a specific time point and stained each with a different dye: fluorescein diacetate (FDA), rhodamine 123 (Rh123), and acridine orange (AO). […]
Rh123 (1 microgram/milliliter final concentration) was added to cells suspended in culture medium for 30 minutes at 37° C. Then the cells were washed twice with cold PBS supplemented with Mg^+2 and Ca^+2, loaded on the cell carrier and fluorescence intensity and polarization were measured by an Argon laser-based Electro-optical scanner. […]
(§5) For the excitation of FDA-stained cells an He/Cd laser was utilized (442 nm, excitation power of 4.5 microwatt) and emission measured at 527 nm. For the detection of AO and Rh123-stained cells an Argon laser was utilized (488 nm, excitation power of 15 microwatt) and emission measured at 530 nm.
(§6) The fluorescence emission of an area containing 20×20 wells was measured using a preset photon counting mode in which the same number of photons is counted for each cell (10,000), canceling differences in precision from strong and weak-emitting cells. […]

[3] = system: T47D human breast cancer cells; assay: FDA fluorescence polarization, Electro-optical scanner (CellScan); assay type: cell-based; details: FIG. 5 panel 191
Description: as §2, §4
(§7) Cells in suspension were stained for 5 minutes with FDA at a final concentration of 2.4 micromolar. The cells were then loaded on the cell carrier, washed twice with PBS supplemented with Mg^+2 and Ca^+2, and fluorescence intensity and polarization were measured by an He/Cd laser-based CellScan™ electro-optical scanner. […]
as §5, §6

[4] = system: T47D human breast cancer cells; assay: AO fluorescence intensity, Electro-optical scanner (CellScan); assay type: cell-based; details: FIG. 6 panels 195-197
Description: as §2
(§8) Cell staining and loading: Three samples were prepared for each treatment at a specific time point and stained each with a different dye: fluorescein diacetate (FDA), rhodamine 123 (Rh123), and acridine orange (AO).
(§9) AO is usually used as a direct probe for nucleic acids in fixed or permeabilized cells. When used under appropriate conditions of concentration and pH it gives bright green fluorescence when bound to double-stranded DNA and red deep fluorescence when bound to single strand RNA and can serve for estimation of cellular DNA content and transcriptional activity. AO was added directly to the cell carrier loaded with cells for 5 minutes at a final concentration of 10 microgram/milliliter, washed twice directly on the grid and measured on an Argon laser-based Electro-optical scanner. […]
(§10) For the excitation of FDA-stained cells an He/Cd laser was utilized (442 nm, excitation power of 4.5 microwatt) and emission measured at 527 nm. For the detection of AO and Rh123-stained cells an Argon laser was utilized (488 nm, excitation power of 15 microwatt) and emission measured at 530 nm. […]

[5] = system: T80 human breast cancer cells; assay: Viable cell count on hemocytometer with trypan blue exclusion; assay type: cell-based; details: low and high doses, 24, 48, 72 hours, FIG. 2 panel 180
Description: as §1, §2, §3

[6] = system: T80 human breast cancer cells; assay: FDA fluorescence polarization, Electro-optical scanner (CellScan); assay type: cell-based; details: FIG. 5 panel 190
Description: as §2, §4, §7, §5, §6

[7] = system: T80 human breast cancer cells; assay: AO fluorescence intensity, Electro-optical scanner (CellScan); assay type: cell-based; details: one day after starting treatment, FIG. 6 panels 192-194
Description: as §2, §8, §9, §10

[8] = system: T80 human breast cancer cells; assay: Rh123 fluorescence intensity, Electro-optical scanner (CellScan)

SMILES	effect on number of viable cells counted (trypan blue exclusion) [1]	change in Rh123 fluorescence intensity versus control untreated cells ([2]; FIG. 3 panel 183)	change of mean fluorescence intensity of Rh123 stained cells, measured one-cell-at-a-time ([2]; FIG. 4 panels 187-189)	change of mean polarization of FDA fluorescence [3]	change of mean fluorescence intensity of AO stained cells, measured one-cell-at-a-time [4]	effect on number of viable cells counted (trypan blue exclusion) [5]	change of mean polarization of FDA fluorescence [6]	change of mean fluorescence intensity of AO stained cells, measured one-cell-at-a-time [7]	change in Rh123 fluorescence intensity versus control untreated cells ([8]; FIG. 3 panel 182)	change of mean fluorescence intensity of Rh123 stained cells, measured one-cell-at-a-time ([8]; one day after starting treatment, FIG. 4 panels 184-186)
O=c1[nH]cc(F)c(=O)[nH]1 [5FU, 5-Fluorouracil]	mild and not significant effects	no significant change in fluorescence intensity	no significant change of mean fluorescence intensity	no significant change of mean fluorescence polarization	no significant change of mean fluorescence intensity	–	–	–	–	–
CCC1=C[C@@H]2CN(C1)Cc1c([nH]c3ccccc13)[C@@](C(=O)OC)(c1cc3c(cc1OC)N(C)[C@H]1[C@@](O)(C(=O)OC)[C@H](OC(C)=O)[C@]4(CC)C=CCN5CC[C@]31[C@@H]54)C2 [Navelbine]	–	–	–	–	–	cytotoxic effect	increase of mean polarization	decrease of mean fluorescence intensity	decrease in Rh123 fluorescence intensity is obvious and markedly significant	decrease of mean fluorescence intensity
